Legend:
[1] = test system: smooth muscle cells (SMCs); assay: SMC proliferation inhibition (BrdU-ELISA or cell counting); assay type: cell-based; conditions: for IC50: 96 h, SMCs, 2000 cells per well, BrdU-ELISA (paclitaxel: counting the number of cells), 24, 48, 72, 96 h
Experimental: SMCs were plated out in a 96-well plate in a density of 2000 cells per well. After 24 h, different concentrations of the active substance were adjusted (10^−2 to 10^−10M). The proliferation was measured after 24, 48, 72, and 96 h following the addition of the active substance using a BrdU-ELISA or, in the case of paclitaxel, by counting the number of cells.

neointimal development [2] = conditions: animal experiments; cited from earlier work
neointimal development [3] = conditions: swine; cited from earlier work
tumor cell lines = conditions: cell culture studies, many different tumor cell lines; read-out: IC50, growth of tumor cell lines; cited from earlier work
tumors = conditions: various animal models; cited from earlier work
alkaline phosphatases = conditions: by alkaline phosphatases; cited from earlier work
endothelial cells = assay: Cell culture studies with endothelial cells after CA4 treatment; assay type: cell-based; conditions: following a treatment with CA4
restenosis = conditions: vascular wall injured by balloon angioplasty and stent placement; cited from earlier work

For `CC(=O)O[C@H]1C(=O)[C@@]2(C)[C@H]([C@H](OC(=O)c3ccccc3)[C@]3(O)C[C@H](OC(=O)[C@H](O)[C@@H](NC(=O)c4ccccc4)c4ccccc4)C(C)=C1C3(C)C)[C@]1(OC(C)=O)CO[C@@H]1C[C@@H]2O` [paclitaxel], the IC50 [1] is listed as ~10 nM, the “effect on neointimal development” value (neointimal development [2]) is listed as “inhibit the neointimal development” and the “effect 6 months after implantation of coated stents” value (neointimal development [3]) is listed as “the effect had been neutralized”.

For `COc1ccc(/C=C\c2cc(OC)c(OC)c(OC)c2)cc1OP(=O)([O-])[O-].[Na+].[Na+]` [CA4P, disodium combretastatin-A4-3-O-phosphate], the IC50 (tumor cell lines) is given as 0.2 to 6 nM, the “inhibition of tumor growth” value (tumors) is given as “markedly inhibit the growth of tumors” and the “transformation into CA4 in vivo” value (alkaline phosphatases) is given as “very rapidly transformed into CA4”.

With `COc1ccc(/C=C\c2cc(OC)c(OC)c(OC)c2)cc1O` [CA4, 2-methoxy-5-[(1Z)-2-(3,4,5-trimethoxyphenyl)ethenyl]phenol] the IC50 [1] was ~0.5 nM, the “effectiveness relative to paclitaxel (SMC proliferation)” value ([1]; CA4 vs paclitaxel) was 10 to 50 times and the “recovery of endothelial cells versus SMCs after treatment” value (endothelial cells) was “endothelial cells are able to recover more rapidly than the SMCs”.

In the case of `CO[C@H]1C[C@@H]2CC[C@@H](C)[C@@](O)(O2)C(=O)C(=O)N2CCCC[C@H]2C(=O)O[C@H]([C@H](C)C[C@@H]2CC[C@@H](O)[C@H](OC)C2)CC(=O)[C@H](C)/C=C(\C)[C@@H](O)[C@@H](OC)C(=O)[C@H](C)C[C@H](C)/C=C/C=C/C=C/1C` [rapamycin], the “healing of the vascular wall” value (restenosis) is given as “delayed healing of the vascular wall”.
